Experimental data: patent US20240382409A1, “COMPOSITION FOR ANTI-AGING AND SKIN IMPROVEMENT, COMPRISING COMPLEX OF INDIAN GOOSE-BERRY EXTRACT AND BARLEY SPROUT EXTRACT (lB COMPLEX) AS ACTIVE INGREDIENT” (HLSCIENCE CO., LTD, priority 2021, published 2024)
≈ marks a conversion by molar mass, not a printed value.

Experiment: Anti-oxidation test: DPPH radical scavenging activity
Type: biochemical
Conditions: positive control
Experimental: In order to investigate the anti-oxidant effect using Examples 1 to 7 and Comparative examples 1 to 2, the DPPH (2,2-diphenyl-1-picryl hydrazyl) radical scavenging activity was evaluated.
The Examples 1 to 7 and Comparative examples 1 to 2 were mixed with 55 μM DPPH solution 450 μl by concentration and then reacted at 4° C. for 30 minutes. After completing the reaction, each sample was placed in a 96-well plate and the absorbance of samples was measured at 520 nm using a micro-plate reader. Then, a sample untreated group was used as a control group, and the free radical scavenging activity (%) of the sample was calculated as Equation 1 below.
Then, as a positive control scavenging radicals, ascorbic acid was used, and the concentration of ascorbic acid when the free radical scavenging activity was 50% was shown as 1.63 μg/mL.
IC50 means the concentration of sample when the free radical scavenging activity of the treated sample is 50%. Table 5 above summarizes the free radical scavenging activity in 5 μg/mL of each sample. […] It could be confirmed that the DPPH radical scavenging activity of Example 5 was the most excellent among them.

Compound: O=C1O[C@H]([C@@H](O)CO)C(O)=C1O [Ascorbic acid, ascorbic acid]
- IC50 (concentration when the free radical scavenging activity is 50%): 1.63 mg/L (≈ 9.25 µM)
